How the values were obtained:
C6 glioblastoma cells = settings: murine C6 glioblastoma cells; parent 5-methylindirubin; cited from earlier work
human cancer cell lines = experiment: Antiproliferative activity against human cancer cell lines; format: cell-based

Structure (SMILES) | effectiveness for inhibition of cells versus parent compound (C6 glioblastoma cells) | antiproliferative activity as compared to the parent molecule, indirubin (human cancer cell lines)
Cc1cc2c(cc1O)NC(=O)C2=C1Nc2ccccc2C1=O | as effective as the parent compound | –
O=C1Nc2ccccc2C1=C1Nc2ncccc2C1=O [E843, 7'-Azaindirubin] | – | markedly augmented
